From PMC8079065, “Design, synthesis and in vitro and in vivo biological evaluation of flurbiprofen amides as new fatty acid amide hydrolase/cyclooxygenase-2 dual inhibitory potential analgesic agents” (Journal of Enzyme Inhibition and Medicinal Chemistry, 2021)
Like-named read-outs stand apart in the source and are kept apart here.

Key:
ovine COX-1 = tested on: T1, ovine COX-1; assay: COX-1 inhibition, oxygen electrode assay; format: biochemical; conditions: 10 µM compound, 10 µM arachidonic acid
T1 construct: purchased Cayman Chemical Co. 60100
Protocol: (§1) The assay was performed according to Meade et al.[58] with minor modifications. An oxygen electrode chamber with integral stirring (Oxygraph System, Hansatech Instruments, King’s Lynn, U.K.) was calibrated daily to ambient temperature and air pressure. The assay buffer contained 100 mM Tris-HCl buffer pH 7.4, 1 µM haematin, 2 mM phenol, 5 mM EDTA, 10 µM substrate (arachidonic acid or 2-AG) (final assay volume was 2 ml). After addition of Flu-AM4 dissolved in ethanol (final assay concentration 1%), a baseline was established for 5 min before initiation of reaction by addition of 200 units of either ovine COX-1 or human recombinant COX-2. The change in oxygen consumption as a measurement of enzyme activity was monitored for approximately 5 min.

CD1 male mice [1] = assay: CCI neuropathic pain model, mechanical hyperalgesia (Randall-Selitto test); format: in vivo; conditions: 1 h before test, day 7 and 14
Protocol: The behavioural experiments were performed on CD1 male mice (25–30 g Charles Rivers-Italy). They were housed in the animal care facility of the Department Experimental of Pharmacology, University of Naples. The animals were acclimated to their environment for 1 week and had ad libitum access to standard rodent chow pellets VRF1 (purchased from Special Diet Service-SDS). All behavioural tests were performed between 9:00 AM and 13:00 PM, and the animals were only used once. Procedures involving animals and their care were conducted in conformity with international and national law and policies (EU Directive 2010/63/EU for animal experiments). The procedures reported here were approved by the Institutional Committee on the Ethics of Animal Experiments (CSV) of the University of Naples “Federico II” and by the “Ministero della Salute”, protocol no. 2014–0084607. At the end of all experiments for all pain models, the animals were euthanized by CO2 overdose.
During this study, Flu-AM4 was administered systemically (intraperitoneally) and locally (intraplantar 100 microg/paw). For systemic administration, the compound was dissolved in PEG400 20% v/v, TWEEN 80 5% (v/v) and sterile saline and used at different doses (1–3–10 mg/kg). Vehicle group was only treated with PEG, TWEEN and sterile saline. For intraplantar administration Flu-AM4 was dissolved in PEG400 10% v/v, TWEEN 80 5% (v/v) and formalin 5% in sterile saline.
Paw withdrawal threshold (PWT) to mechanical pressure was measured with a Randall-Selitto Analgesy-Meter for mice (Ugo Basile, Italy). PWT was measured on the ispsilateral paw at 1, 2, 4, 6 and 48 h post carrageenan injection. Each paw was tested twice per session. Cut-off force was set at 100 g.
Neuropathic pain was induced by ligation of the sciatic nerve as described previously. […] At day 7 and 14 Mechanical Allodynia (von Frey test) and Mechanical hyperalgesia (Randall-Selitto test) were assessed. […]

COX-2 = COX-2 expression in the spinal cord of CCI-mice; format: in vivo; conditions: 10 mg/kg ip, 1 h before
FAAH = molecular target: T2, FAAH (Rattus norvegicus, UniProt P97612); assay: FAAH assay: [3H]AEA hydrolysis by rat brain homogenates; format: biochemical; conditions: for IC50: 0.5 µM [3H]AEA, rat brain homogenates
T2 construct: rat or mouse brain homogenates as the enzyme source; from tissue; host or cells: rat brain (minus cerebellum), Wistar or Sprague-Dawley, washed membrane homogenate
T2 sequence (P97612 1-579): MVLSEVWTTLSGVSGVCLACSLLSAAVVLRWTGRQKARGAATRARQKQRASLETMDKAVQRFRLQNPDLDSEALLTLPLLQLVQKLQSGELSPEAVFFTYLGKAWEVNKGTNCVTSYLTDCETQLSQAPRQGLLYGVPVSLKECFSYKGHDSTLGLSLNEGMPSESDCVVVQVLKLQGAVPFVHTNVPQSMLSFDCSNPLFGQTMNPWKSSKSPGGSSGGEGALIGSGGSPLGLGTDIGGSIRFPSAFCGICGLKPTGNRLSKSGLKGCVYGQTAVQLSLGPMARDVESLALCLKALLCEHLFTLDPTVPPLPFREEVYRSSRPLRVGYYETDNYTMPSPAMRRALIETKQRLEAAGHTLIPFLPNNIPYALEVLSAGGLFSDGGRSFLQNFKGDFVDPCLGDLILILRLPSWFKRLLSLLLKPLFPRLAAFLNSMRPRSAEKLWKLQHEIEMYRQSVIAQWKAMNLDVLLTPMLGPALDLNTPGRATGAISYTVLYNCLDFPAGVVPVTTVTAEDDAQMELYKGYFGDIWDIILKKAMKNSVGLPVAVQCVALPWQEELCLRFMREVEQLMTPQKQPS

iNOS = iNOS expression in the spinal cord of CCI-mice; format: in vivo; conditions: 10 mg/kg ip, 1 h before
CD1 male mice [2] = assay: Carrageenan-induced paw oedema; format: in vivo; conditions: 10 mg/kg ip, 5 min after carrageenan; p < 0.05
Protocol: The behavioural experiments were performed on CD1 male mice (25–30 g Charles Rivers-Italy). They were housed in the animal care facility of the Department Experimental of Pharmacology, University of Naples. The animals were acclimated to their environment for 1 week and had ad libitum access to standard rodent chow pellets VRF1 (purchased from Special Diet Service-SDS). All behavioural tests were performed between 9:00 AM and 13:00 PM, and the animals were only used once. Procedures involving animals and their care were conducted in conformity with international and national law and policies (EU Directive 2010/63/EU for animal experiments). The procedures reported here were approved by the Institutional Committee on the Ethics of Animal Experiments (CSV) of the University of Naples “Federico II” and by the “Ministero della Salute”, protocol no. 2014–0084607. […]
Paw edoema was induced by a subplantar injection of 0.1 ml of sterile saline containing 1% λ-carrageenan (Sigma Aldrich) into the right hind paw. Paw volumes were measured by a plethysmometer (Ugo Basile, Italy) at different times after the paw injection. The increase in paw volume was evaluated as the difference between the paw volume measured (Vm) at each time point (1, 2, 4, 6 and 48 h post carrageenan) and the basal paw volume (Vb) measured immediately before carrageenan injection (Δ volume = Vm – Vb).

human recombinant COX-2 = tested on: T3, human recombinant COX-2; assay: COX-2 inhibition, oxygen electrode assay; format: biochemical; conditions: 10 µM compound, 10 µM 2-AG
T3 construct: purchased Cayman Chemical Co. 60122
Protocol: as §1, with “[…].)” for “King’s Lynn, U.K.)”, “μM” for “µM”

CC(C(=O)Nc1ncccc1Br)c1ccc(-c2ccccc2)c(F)c1 (stereo not shown) [Flu-AM4, N-(3-Bromopyridin-2-yl)-2-(2-fluoro-(1,1'-biphenyl)-4-yl)propanamide]
inhibition of cyclooxygenation of AA by COX-1 (ovine COX-1): only partially inhibiting | CCI-induced mechanical hyperalgesia (Randall-Selitto) (CD1 male mice [1]; 1 mg/kg ip): did not show any effect | CCI-induced mechanical hyperalgesia (Randall-Selitto) (CD1 male mice [1]; 3 mg/kg ip): showed efficacy only at the 14-day time point in both tests | CCI-induced mechanical hyperalgesia (Randall-Selitto) (CD1 male mice [1]; 10 mg/kg ip): increased paw withdrawal latency in both test and in all experimental time | COX-2 expression in the spinal cord (COX-2): significantly reduced this expression | IC50 (FAAH; derived from pI50, read-out: IC50 for inhibition of rat brain AEA hydrolysis): 21 nM | IC50 (FAAH; means ± s.e.m., n = 3–4, read-out: pI50 (-logIC50) for inhibition of rat brain AEA hydrolysis (converted)): 21.4 nM | Ki (FAAH; rat brain [3H]AEA hydrolysis, competitive model): 13 nM | increase in FAAH inhibitory activity versus Flu-AM1 (FAAH; rat brain, IC50 compared with Flu-AM1): approximately 20 fold | FAAH potency versus flurbiprofen (FAAH; rat brain, IC50 compared with flurbiprofen): more than three orders of magnitude greater than flurbiprofen | mode of FAAH inhibition (kinetics) (FAAH; rat brain, best fit by Akaike's criteria): competitive inhibition | reversibility of FAAH inhibition (FAAH; rat brain, preincubation and 20-fold dilution experiments): reversible inhibitor | potency towards rat brain FAAH versus mouse brain FAAH (FAAH; rat vs mouse brain): an order of magnitude more potent towards rat brain FAAH than mouse brain FAAH | iNOS expression in the spinal cord (iNOS): significantly reduced this expression | carrageenan-induced paw oedema (CD1 male mice [2]): reduced paw oedema at 2 and 4 h | inhibition of cyclooxygenation of 2-AG by COX-2 (human recombinant COX-2): completely inhibited
